Assay results reported in US20100234381A1, “BIOMARKERS AND METHODS FOR DETERMINING SENSITIVITY TO VASCULAR ENDOTHELIAL GROWTH FACTOR RECEPTOR-2 MODULATORS” (Bristol-Myers Squibb Company, priority 2007, published 2010).
Entries after “also recorded” stand apart in the source; their conditions may differ.

Tests used:
GEO colon cancer model = assay: Tumor growth inhibition in GEO colon cancer model; type: in vivo; settings: compared to bevacizumab
GEO colon cancer cells = assay: FGF2-induced proliferation of GEO colon cancer cells (modified MTS assay); type: cell-based
Method: Cell Culture-GEO colon cancer cell line was routinely maintained in RPMI 1640 (Cellgro, Virginia) with 1% fetal bovine serum (Cellgro, Virginia) at 37° C. in 5% carbon dioxide/95% air in the presence of 100 units/ml penicillin, 100 μg/ml streptomycin (Cellgro, Virginia). Cell proliferation was determined by a modified MTS assay with […] 96® Aqueous One Solution Reagent (Promega, Madison, Wis.). […] After 180 minutes incubation, the optical densities (OD) of these samples were directly measured using SPECTRAMAX® plus (Molecular Device, California) and reference wavelength of 490 nm. […] Cell proliferation was determined by a modified MTS assay with […] […] After 180 minutes incubation, the optical densities (OD) of these samples were directly measured using SPECTRAMAX® plus (Molecular Device, California) and reference wavelength of 490 nm. […] […]

[1] = test system: advanced or metastatic solid tumors; assay: Phase 1 clinical study CA 182-002: tumor response and PFS by FGF2 status; type: in vivo, human; settings: for patients with progressive disease / patients with a partial response or stable disease: after 56 days of treatment; for patients with a partial response or stable disease: WHO criteria; for median increase in tumor size from baseline: after two cycles of treatment (approximately 56 days)
Excerpt: All patients gave informed consent for the clinical trial and for this study, which was approved by the appropriate institutional review boards. Inclusion criteria include ECOG 0-1 (S. Javerzat et al., Trends Mol. Med., 8:483 (2002)), adequate bone marrow and hepatic function, and having tumor tissue block or 20 to 30 unstained slides of the initial biopsy available. Exclusion criteria included prior exposure to vascular endothelial growth factor (VEGF) inhibitors, presence of cardiovascular disease, thromboembolism, or bleeding in the last 6 months. All patients enrolled in the clinical trial had previously failed primary and secondary chemotherapy courses. […] Patients' response was measured by quantifying tumor size by contrast enhanced tomography (CT).
Tumor response was assesses using the modified WHO tumor response criteria. Lesions were evaluated by computed tomography (CT). Lesions were bidimensional and had at least one diameter of >2 cm on standard CT and >1 cm on spiral CT. For bidimensional measurements, the second diameter was perpendicular to the longest diameter. The area of lesion was calculated by multiplying the longest diameter by the greatest perpendicular diameter.
Tumor blocks were sectioned at 4 μm. Slides were de-paraffined and rehydrated in the LEICA® ST5020 Multistainer. Antigen retrieval was carried out by heating slides with Citra Plus Antigen retrieval solution (BioGenex, Cat # HK080-9K) in a BIOGENEX® EZ-Retriever Microwave at 95° C. for 15 minutes. The slides were then cooled at room temp for 5 minutes, and rinsed with distilled water for three times (˜1 minute each). Slides were immunostained in the i6000 Automated Staining System (BioGennex) using the following conditions: blocking with peroxide block (DAKO, Cat# K4007) for 5 minutes, followed by 5% goat serum for 30 mins, primary antibodies rabbit anti-fibroblast growth factor-2 (FGF-2) (Abcam Cat# #16828) 1:25 or rabbit immunoglobulin G (Rabbit IgG, LabVision, Cat# NC-100-P) 5 μg/ml were added and incubated for 1 hour, followed by Peroxidase Anti-Rabbit IgG (H+L) secondary antibody (Vector, Cat# PI-1000) at 1:200 dilution for 45 minutes. Chromogen substrate DAB (DAKO, Cat# K4007) was added and incubated for 5 minutes. Slides were counterstained with hematoxyline (DAKO cat#53309) for 1 minute. The stained slides were dehydrated and coverslipped in the LEICA® ST5020 Multistainer and assessed by a board-certified pathologist, without knowledge of patients' medical status.
To compare response rates between the FGF-2(+) and FGF-2(−) groups, a Fisher's exact test was used. To test for differences of percent changes from baseline in tumor between FGF-2(+) and FGF-2(−) groups, a non-parametric Wilcoxon rank-sum test was used (since the assumptions on the marginal distributions for the t-statistic were slightly violated for percent change from baseline, and small sample sizes could increase the test's vulnerability to assumption violations). The same method was applied to test for the difference in percent change from baseline of CIV at Day 8 and Day 26 between the two groups. In addition, a Rank-based ANCOVA was used to investigate the effect of the FGF-2 status on the post-baseline tumor volume, adjusted for the baseline tumor volume. All analyses were performed using R (Y. Shing et al., Science., 223:1296 (1984)).

[(1R),2S]-2-Aminopropionic acid 2-[4-(4-fluoro-2-methyl-1H-indol-5-yloxy)-5-methylpyrrolo[2,1-f][1,2,4]triazin-6-yloxy]-1-methylethyl ester [brivanib]
ability to inhibit tumor growth (GEO colon cancer model): increased affect on the ability to inhibit tumor growth when compared to bevacizumab | GEO tumor cell growth over time, stimulated with FGF2 (GEO colon cancer cells; 2.5 μM brivanib, day 1 to 8 compared to day 0 control): inhibited GEO tumor cell growth stimulated with FGF2 | inhibition of FGF2-induced cellular proliferation in GEO cells (GEO colon cancer cells; FGF2 2.5 ng/ml, 72 hours): potently inhibited; also recorded: inhibited cancer cell growth directly; also recorded: inhibits colon cancer cell growth directly | tumor shrinkage from baseline, FGF2 staining vs negative staining tumors ([1]; Example 1 analysis of CA 182-002, not statistically significant): tend to have more shrinkage than the negative staining tumors | survival, FGF2 positive vs negative tumors (Kaplan-Meier) ([1]; Example 1 analysis of CA 182-002, p value 0.475): tended to have a survival advantage | Mean change in tumor size (%) (~8 wks) High (≧600 mg) (n = 26) ([1]; FGF2+ patients (n = 24)): 0.9% | Mean change in tumor size (%) (~8 wks) Low (<600 mg) (n = 17) ([1]; FGF2+ patients (n = 24)): 28% | Median PFS (days) High (≧600 mg) (n = 26) ([1]; FGF2+ patients (n = 24)): 107 days | Median PFS (days) Low (<600 mg) (n = 17) ([1]; FGF2+ patients (n = 24)): 71 days | PD, number of patients ([1]; FGF2+ patients (n = 24)): 9 | PR, number of patients ([1]; FGF2+ patients (n = 24)): 2 | Mean change in tumor size (%) (~8 wks) High (≧600 mg) (n = 26) ([1]; FGF2− patients (n = 19)): 24% | Mean change in tumor size (%) (~8 wks) Low (<600 mg) (n = 17) ([1]; FGF2− patients (n = 19)): 71% | Median PFS (days) High (≧600 mg) (n = 26) ([1]; FGF2− patients (n = 19)): 56 days | Median PFS (days) Low (<600 mg) (n = 17) ([1]; FGF2− patients (n = 19)): 54 days | PD, number of patients ([1]; FGF2− patients (n = 19)): 14 | PR, number of patients ([1]; FGF2− patients (n = 19)): 0 | reduction of tumor growth, FGF-2(+) compared with FGF-2(−) patients ([1]; patients with FGF-2(+) tumors): three-fold | patients with progressive disease ([1]; patients with FGF-2(+) tumors): 9 out of 24 | patients with a partial response or stable disease ([1]; patients with FGF-2(+) tumors): 62.5% | median increase in tumor size from baseline ([1]; patients with FGF-2(+) tumors): 1% | patients with progressive disease ([1]; patients with FGF-2(−) tumors): 14 out of 19 | median increase in tumor size from baseline ([1]; patients with FGF-2(−) tumors): 36% | patients with a partial response or stable disease ([1]; patients with FGF-2− tumors): 26.3%
